Experimental data as given in patent US20220193013A1, “Pharmaceutical Composition for Treatment or Prevention of Multiple Inflammatory Disorders” (priority 2020, published 2022).

Columns and labels:
[1] = tested on: mouse peritoneum macrophages; assay: LPS-stimulated mouse peritoneal macrophages, cytokine analysis; type: cell-based; details: for GM-CSF, Significance @ 12 hour LPS incubation / IFNγ, Significance @ 12 hour LPS incubation / IL-1α, Significance @ 12 hour LPS incubation / IL-1β, Significance @ 12 hour LPS incubation / IL-2, Significance @ 12 hour LPS incubation / IL-4, Significance @ 12 hour LPS incubation / IL-6, Significance @ 12 hour LPS incubation / IL-7, Significance @ 12 hour LPS incubation / IL-10, Significance @ 12 hour LPS incubation / IL-12 (p70), Significance @ 12 hour LPS incubation / IL-13, Significance @ 12 hour LPS incubation / IL-17A, Significance @ 12 hour LPS incubation / KC/CXCL1, Significance @ 12 hour LPS incubation / LIX, Significance @ 12 hour LPS incubation / MCP-1, Significance @ 12 hour LPS incubation / MIP-2, Significance @ 12 hour LPS incubation / TNF-α, Significance @ 12 hour LPS incubation: P value
Experimental: This example provides an […] study to determine the effect of DA on mouse peritoneum macrophages. Peritoneal exudates were obtained from Balb/c female mice by lavage 4 days after an intraperitoneal injection of 4 ml sterile 4% thioglycollate broth. After washing with RPMI 1640 medium, the cell suspensions were centrifuged at 800 g at 4° C. for 5 min. The red blood cells were eliminated by ACK buffer and the cells were washed and resuspended in RPMI 1640 supplemented with 10% inactivated FBS, 10 mM HEPES, 2 mM glutamine, and 100 U/ml penicillin-[…] streptomycin. The peritoneal macrophages were plated in 24 well tissue culture plate (2×10^5 cells/mL/well) at 37° C. in a 5% CO2 humidified atmosphere. Macrophages were precultured in serum-free RPMI 1640 medium for 24 h to reduce mitogenic effects. Macrophages were pretreated with various concentrations of DA for 1 h prior to LPS treatment and stimulated with LPS (100 ng/mL) for 24 h. Treatment groups were: Table 4 At 12 and 24 h time points of stimulation, ˜200 ul of supernatant were removed and stored (−80° C.) for cytokine analysis ([…]). Cytokines analyzed were—GM-CSF, IFNγ, IL-1a, IL-1β, IL-2, IL-4, IL-5, IL-6, IL-7, IL-10, IL-12 (p70), IL-13, IL-17A, KC/CXCL1, LIX, MCP-1, MIP-2, TNF-α,

[2] = tested on: leptin-deficient (ob/ob) mice; assay: body weight study of denatonium acetate in leptin-deficient (ob/ob) mice fed with high-fat diet, 28 days; type: in vivo, mouse; details: vs vehicle
Experimental: This example describes an in vivo study of denatonium acetate on body weight in leptin-deficient (ob/ob) mice. Adult leptin-deficient mice (homozygote, ob/ob mice) fed with high-fat diet. There was a vehicle control group (15 mice) that were treated with distilled water by gavage BID. The DA group (15 mice) were treated with a DA solution at a dose of 23.1 mg/kg BID. Body weights and body weight changes were determined at days 1, 3, 7, 10, 14, 21, 24 and 28. Food intake was determined on days 3, 7, 10, 14, 17, 21, […] and 28. On day 28 blood samples were taken for cytokine analysis, HbA1c, HDL, LDL, insulin, and bile acids. Statistics were done by two-way repeated measures ANOVA followed by Tukey's multiple comparison post hoc test.

[3] = 23.1 mg/kg BID, pre-dose to day 28, not statistically significant

## CC(=O)[O-].CC[N+](CC)(CC(=O)Nc1c(C)cccc1C)Cc1ccccc1 [DA, denatonium acetate]
[1]; DA 1 μM
  GM-CSF, Significance @ 24 hour LPS incubation: No sig
  IFNγ, Significance @ 24 hour LPS incubation: No sig
  IL-1α, Significance @ 24 hour LPS incubation: No sig
  IL-1β, Significance @ 24 hour LPS incubation: No sig
  IL-2, Significance @ 24 hour LPS incubation: No sig
  IL-4, Significance @ 24 hour LPS incubation: No sig
  IL-6, Significance @ 24 hour LPS incubation: No sig
  IL-7, Significance @ 24 hour LPS incubation: No sig
  IL-10, Significance @ 24 hour LPS incubation: No sig
  IL-12 (p70), Significance @ 24 hour LPS incubation: No sig
  IL-13, Significance @ 24 hour LPS incubation: No sig
  IL-17A, Significance @ 24 hour LPS incubation: No sig
  KC/CXCL1, Significance @ 24 hour LPS incubation: No sig
  LIX, Significance @ 24 hour LPS incubation: No sig
  MCP-1, Significance @ 24 hour LPS incubation: No sig
  MIP-2, Significance @ 24 hour LPS incubation: No sig
  TNF-α, Significance @ 24 hour LPS incubation: No sig
  GM-CSF, Significance @ 12 hour LPS incubation: 0.029
  IFNγ, Significance @ 12 hour LPS incubation: 0.031
  IL-1α, Significance @ 12 hour LPS incubation: 0.021
  IL-1β, Significance @ 12 hour LPS incubation: 0.023
  IL-2, Significance @ 12 hour LPS incubation: 0.005
  IL-4, Significance @ 12 hour LPS incubation: 0.009
  IL-6, Significance @ 12 hour LPS incubation: 0.096
  IL-7, Significance @ 12 hour LPS incubation: 0.024
  IL-10, Significance @ 12 hour LPS incubation: 0.045
  IL-12 (p70), Significance @ 12 hour LPS incubation: 0.017
  IL-13, Significance @ 12 hour LPS incubation: 0.038
  IL-17A, Significance @ 12 hour LPS incubation: 0.044
  KC/CXCL1, Significance @ 12 hour LPS incubation: No sig
  LIX, Significance @ 12 hour LPS incubation: No sig
  MCP-1, Significance @ 12 hour LPS incubation: No sig
  MIP-2, Significance @ 12 hour LPS incubation: 0.081
  TNF-α, Significance @ 12 hour LPS incubation: 0.059
[1]; DA 10 μM
  GM-CSF, Significance @ 24 hour LPS incubation: no sig
  IFNγ, Significance @ 24 hour LPS incubation: no sig
  IL-1α, Significance @ 24 hour LPS incubation: no sig
  IL-1β, Significance @ 24 hour LPS incubation: no sig
  IL-2, Significance @ 24 hour LPS incubation: no sig
  IL-4, Significance @ 24 hour LPS incubation: no sig
  IL-6, Significance @ 24 hour LPS incubation: no sig
  IL-7, Significance @ 24 hour LPS incubation: no sig
  IL-10, Significance @ 24 hour LPS incubation: no sig
  IL-12 (p70), Significance @ 24 hour LPS incubation: no sig
  IL-13, Significance @ 24 hour LPS incubation: no sig
  IL-17A, Significance @ 24 hour LPS incubation: no sig
  KC/CXCL1, Significance @ 24 hour LPS incubation: no sig
  LIX, Significance @ 24 hour LPS incubation: no sig
  MCP-1, Significance @ 24 hour LPS incubation: no sig
  MIP-2, Significance @ 24 hour LPS incubation: no sig
  TNF-α, Significance @ 24 hour LPS incubation: no sig
  GM-CSF, Significance @ 12 hour LPS incubation: no sig
  IFNγ, Significance @ 12 hour LPS incubation: 0.037
  IL-1α, Significance @ 12 hour LPS incubation: 0.036
  IL-1β, Significance @ 12 hour LPS incubation: 0.023
  IL-2, Significance @ 12 hour LPS incubation: 0.004
  IL-4, Significance @ 12 hour LPS incubation: 0.009
  IL-6, Significance @ 12 hour LPS incubation: 0.029
  IL-7, Significance @ 12 hour LPS incubation: 0.010
  IL-10, Significance @ 12 hour LPS incubation: 0.026
  IL-12 (p70), Significance @ 12 hour LPS incubation: 0.007
  IL-13, Significance @ 12 hour LPS incubation: 0.019
  IL-17A, Significance @ 12 hour LPS incubation: 0.024
  KC/CXCL1, Significance @ 12 hour LPS incubation: no sig
  LIX, Significance @ 12 hour LPS incubation: no sig
  MCP-1, Significance @ 12 hour LPS incubation: no sig
  MIP-2, Significance @ 12 hour LPS incubation: 0.021
  TNF-α, Significance @ 12 hour LPS incubation: 0.024
[1]; DA 100 μM
  GM-CSF, Significance @ 24 hour LPS incubation: no sig
  IFNγ, Significance @ 24 hour LPS incubation: no sig
  IL-1α, Significance @ 24 hour LPS incubation: no sig
  IL-1β, Significance @ 24 hour LPS incubation: no sig
  IL-2, Significance @ 24 hour LPS incubation: no sig
  IL-4, Significance @ 24 hour LPS incubation: no sig
  IL-6, Significance @ 24 hour LPS incubation: no sig
  IL-7, Significance @ 24 hour LPS incubation: no sig
  IL-10, Significance @ 24 hour LPS incubation: no sig
  IL-12 (p70), Significance @ 24 hour LPS incubation: no sig
  IL-13, Significance @ 24 hour LPS incubation: no sig
  IL-17A, Significance @ 24 hour LPS incubation: no sig
  KC/CXCL1, Significance @ 24 hour LPS incubation: no sig
  LIX, Significance @ 24 hour LPS incubation: no sig
  MCP-1, Significance @ 24 hour LPS incubation: no sig
  MIP-2, Significance @ 24 hour LPS incubation: no sig
  TNF-α, Significance @ 24 hour LPS incubation: no sig
  GM-CSF, Significance @ 12 hour LPS incubation: no sig
  IL-10, Significance @ 12 hour LPS incubation: 0.015
  IL-12 (p70), Significance @ 12 hour LPS incubation: 0.008
  IL-13, Significance @ 12 hour LPS incubation: 0.021
  IL-17A, Significance @ 12 hour LPS incubation: 0.042
  KC/CXCL1, Significance @ 12 hour LPS incubation: 0.022
  LIX, Significance @ 12 hour LPS incubation: no sig
  MCP-1, Significance @ 12 hour LPS incubation: no sig
  MIP-2, Significance @ 12 hour LPS incubation: 0.033
  TNF-α, Significance @ 12 hour LPS incubation: 0.033
[2]; 23.1 mg/kg BID gavage, 28 days
  average daily average individual food intake: no difference
[2]; 23.1 mg/kg BID gavage, day 28
  GM-CSF in blood: significant decreases
  IFNγ in blood: significant decreases
  IL-5 in blood: significant decreases
  IL-10 in blood: significant decreases
  IL-12 in blood: significant decreases
  KC/CXCL1 in blood: significant decreases
  M-CSF in blood: significant decreases
  blood HDL level: statistically significant decrease
  blood HbA1c levels: no statistically significant difference
  blood LDL levels: no statistically significant difference
  blood bile acid levels: no statistically significant difference
  blood insulin levels: no statistically significant difference
  blood total cholesterol levels (LDL plus HDL): almost significant decrease
  fasting blood glucose level: no statistically significant difference
[2]; 23.1 mg/kg BID gavage, days 1-28, P=0.105
  body weight change: no significant main effect
[2]; 23.1 mg/kg BID gavage
  body weight change at day 28: no statistically significant difference
  cumulative food consumption over 28 days: no statistically significant difference
[2]; [3]
  change in granulocyte number: trend of increasing change
  change in lymphocyte and white blood cell numbers and percentage: trend of increasing change
  change in monocyte number and percentage: trend of increasing change
